# Assay results reported in US12491184B2 (Veradermics, Incorporated, priority 2022, dated 2025).
# Columns and labels:
# dogs = details: short-term administration 0.5 mg to 10 mg/kg/day; cited from earlier work
# animal = details: long term animal studies; cited from earlier work
# mice = details: dietary, up to 2 years, 63 mg/kg/day; cited from earlier work
# [1] = oral; cited from earlier work
# [2] = 2.5 mg, 5 mg, or 10 mg oral; cited from earlier work
# male adults with AGA = details: cited from earlier work
# patients = details: cited from earlier work
# [3] = test system: patient with androgenetic alopecia; details: 1.25 mg QID
smiles,measurement,setting,value
Nc1cc(N2CCCCC2)nc(N)[n+]1[O-] [minoxidil],cardiac findings,dogs,various cardiac lesions
same,cardiac findings,animal,"cardiac hypertrophy, cardiac dilation, and serosanguineous pericardial fluid"
same,incidence of hepatic nodules in males,mice,increased incidence of hepatic nodules
same,absorbed from the gastrointestinal tract,[1],> 90%
same,differences in systolic and diastolic blood pressure (time effects within treatments),[2],less than 10%
same,effect on blood pressure in normotensive subjects,[2],little effect on blood pressure
same,adverse cardiovascular outcomes,"male adults with AGA; 5 mg oral at bedtime, 24 weeks",No adverse cardiovascular outcomes
same,change in mean heart rate,"male adults with AGA; 5 mg oral at bedtime, 24 weeks",no overall change in mean heart rate
same,laboratory variables before versus after treatment,"male adults with AGA; 5 mg oral at bedtime, 24 weeks",no differences
same,subjects developing tachycardia,male adults with AGA; at the follow-up visit,1 subject
same,emergence of hypertrichosis signs after starting treatment,"patients; human, in vivo",3-6 weeks
same,spontaneous reversal of hypertrichosis after cessation of therapy,"patients; human, in vivo",1-6 months
same,occurrence of hypertrichosis,patients; treated patients,most patients
same,unwanted hair growth or other adverse events,[3],"No unwanted hair growth or other adverse events, including any cardiac effects"
